Test results taken from US20030104393A1, “Blood assessment of injury” (priority 2000, published 2003).

Tested on: blood cells
Assay: Blood pattern of gene expression in epileptic individuals treated with anticonvulsant valporate or carbamazepine (Affymetrix U95A, SAM)
Type: in vivo, human
Details: for Upregulated genes for Carbamazepine: blood of epileptic individuals treated with carbamazepine vs epileptic individuals taking no anticonvulsant, value = Genbank accession of the upregulated gene; for Pattern of expression in blood for each drug: epileptic individuals treated with anticonvulsant vs epileptic individuals taking no anticonvulsant, FIG. 5
Excerpt: FIG. 5 is a cluster analysis of the expression obtained from pediatric epilepsy patients prior to being treated compared to the expression of these individuals after being treated with anticonvulsant valporate (VPA) or the anticonvulsant carbamazepine (CPZ), as described in the Example 8;
To study the gene expression in Parkinson's patients, blood from over 30 patients is collected from healthy controls as well as from patients with a variety of disorders, including idiopathic Parkinson's patients with bradykinesia, rigidity and the characteristic tremor without dementia or evidence of any other neurological findings; progressive supranuclear palsy, bipolar disorder, schizophrenia, epilepsy, and Tourettes. A commercially available kit (Qiagen) is used to the blood cells from the whole blood samples, and total RNA isolated from the white blood cells. Two thirds of the RNA is used on DNA microarrays, and one third is used for PCR confirmation of the genes that are changed. After the purity of the RNA is checked ([…]), cDNA is synthesized from the total RNA and used to make biotin labeled cRNA. The cRNA is then applied to Affymetrix chips, human U95A chips that can screen for the expression of over 13,000 human genes including 11,000 known genes and 2,000 ESTs, and processed and scanned according to manufacturer's instructions. The chips are scanned twice for each patient sample. Genes that are expressed over two-fold compared to normals are plotted on figures. These genes are confirmed using standard techniques including PCR, Northern blotting or Western blotting. A separate statistical analysis is also applied to the data. […] Once this analysis is performed, the data is used to perform a class prediction analysis. […] The expression value of the genes is shown on the Y axis and the individual patients are plotted on the X-axis.
Blood is obtained from epileptic individuals, epileptic individuals being treated with anticonvulsant valporate and epileptic individuals being treated with anticonvulsant carbamazepine. A pattern of expression is captured and analyzed for each injury state as described in Example 4.

| SMILES | Upregulated genes for Carbamazepine (gene AA883870: am26f01.s1 Homo sapiens cDNA, 3 end) | Upregulated genes for Carbamazepine (gene AB000824: Homo sapiens mRNA for trehalase, complete cds) | Pattern of expression in blood for each drug |
| --- | --- | --- | --- |
| NC(=O)N1c2ccccc2C=Cc2ccccc21 [Carbamazepine, carbamazepine] | AA883870 | AB000824 | different from each other and different from the controls |
| CCCC(CCC)C(=O)O [Valporate, valporate] | – | – | different from each other and different from the controls |
